According to patent US11197891B2, “Therapies with lanthionine C-like protein 2 ligands and cells prepared therewith” (Landos Biopharma, Inc., priority 2017, dated 2021):
pKd: −log10 of the molar value. “Also recorded” adds a separate entry of the source.

Experiments:
[1] = tested on: Lancl2ΔT and Lancl2-expressing control mice challenged with DSS; test: DSS model of colitis; assay type: in vivo
CD4+ T cells = test: Differentiation of CD4+ T cells into Tregs with metabolic modulators; assay type: cell-based, mice; conditions: BT-11 with PS-48 (5 μM), DASA-58 (10 μM) or thapsigargin (10 nM)
Experimental: (§1) Spleens from WT and Lancl2−/− mice were excised and crushed to generate a single cell suspension. CD4+ T cell fraction was enriched by negative selection via magnetic sorting with the BD IMag system. Naïve CD4+ T cells were obtained by incubation with a biotinylated CD62L antibody followed by conjugation to streptavidin coated magnetic beads. Naïve cells were incubated for 48 hours within anti-CD3 coated tissue culture plates in complete IMDM media containing all-trans retinoic acid and purified TGF-β to stimulate differentiation into Tregs. […] Metabolic modulators, PS-48 (5 μM), DASA-58 (10 μM), and thapsigargin (10 nM), were added at 0 h. […] Six hours prior to assay, cells were stimulated with PMA and ionomycin. Cells were collected from plate for downstream analysis by flow cytometry, gene expression and metabolic assay.

[2] = tested on: C. difficile strain VPI 10463 (ATCC 43255); test: C. difficile infection animal model; assay type: in vivo, mice; conditions: 8 mg/kg/d after infection
[3] = tested on: CD4+ T cells co-cultured with in vitro differentiated Tregs; test: Co-assay of CD4+ T cells and BT-11 pre-treated Treg cells; assay type: cell-based, mice
Experimental: as §1
After two days cells were collected and plated with freshly collected CFSE-labeled CD4+ T cells.

[4] = tested on: in vitro differentiated Tregs; test: STAT5a and FOXO1 phosphorylation by Western blot in in vitro differentiated Tregs; assay type: cell-based, mice
Description: Cells were also differentiated in the presence of inhibitors for PTEN (SF1670) or STATS (STAT5i).

LANCL2 = biological target: T1, LANCL2 (Homo sapiens, UniProt Q9NS86); test: Surface plasmon resonance (SPR) binding to LANCL2; conditions: Tables 1A and 1B; read-out: SPR Affinity to LANCL2 (Kd)
T1 sequence (Q9NS86 1-450): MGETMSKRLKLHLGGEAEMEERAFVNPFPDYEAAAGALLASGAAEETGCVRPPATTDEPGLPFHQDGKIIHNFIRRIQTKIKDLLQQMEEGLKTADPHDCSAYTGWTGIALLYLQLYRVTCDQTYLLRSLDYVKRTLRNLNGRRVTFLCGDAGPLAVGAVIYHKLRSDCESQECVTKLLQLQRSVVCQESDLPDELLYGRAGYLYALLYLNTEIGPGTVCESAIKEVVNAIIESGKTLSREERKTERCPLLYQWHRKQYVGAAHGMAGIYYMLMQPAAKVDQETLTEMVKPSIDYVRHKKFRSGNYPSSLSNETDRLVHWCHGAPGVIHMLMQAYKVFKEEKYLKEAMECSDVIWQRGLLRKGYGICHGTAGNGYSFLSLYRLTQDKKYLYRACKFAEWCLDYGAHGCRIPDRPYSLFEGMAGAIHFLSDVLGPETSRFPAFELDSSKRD

[5] = tested on: in vitro differentiated Tregs; test: Gene expression of Treg stability genes in in vitro differentiated Tregs; assay type: cell-based, mice; conditions: WT Tregs
Description: Total RNA from colon and cells was generated using the Qiagen RNeasy mini kit. cDNA was generated using the BioRad iScript cDNA synthesis kit. Standard curves were generated by serial dilution of purified product from a standard PCR reaction with Taq DNA polymerase followed by purification using the Qiagen MinElute PCR purification kit. Expression levels were obtained from quantitative real-time PCR with SybrGreen supermix on a BioRad CFX96 Thermal cycler followed by normalization to expression of β-actin as described previously [33].
Spleens from WT and Lancl2−/− mice were excised and crushed to generate a single cell suspension. CD4+ T cell fraction was enriched by negative selection via magnetic sorting with the BD IMag system. Naïve CD4+ T cells were obtained by incubation with a biotinylated CD62L antibody followed by conjugation to streptavidin coated magnetic beads. Naïve cells were incubated for 48 hours within anti-CD3 coated tissue culture plates in complete IMDM media containing all-trans retinoic acid and purified TGF-β to stimulate differentiation into Tregs [18]. […] Metabolic modulators, PS-48 (5 μM), DASA-58 (10 μM), and thapsigargin (10 nM), were added at 0 h. […] Six hours prior to assay, cells were stimulated with PMA and ionomycin. Cells were collected from plate for downstream analysis by flow cytometry, gene expression and metabolic assay. […]

[6] = tested on: PBMCs from Crohn's disease donors; test: PBMCs isolated from Crohn's disease donors, 24 hour culture; assay type: cell-based, human
Experimental: (§2) Fresh de-identified whole blood was obtained from commercial vendor. Blood was diluted and purified for PBMC fraction by LeukoSep tube. Remaining red blood cells were lysed by hypotonic lysis. […] For siRNA experiments, cells were first incubated with an OriGene 3-mer LANCL2 siRNA or scrambled control suspended within ViromerGreen transfection reagent for 6 hours. […] Cells were stimulated with PMA and ionomycin six hours prior to assay.
(§3) Whole blood was obtained from Crohn's disease patients, clinically categorized as mild to moderate disease.

[7] = tested on: naïve CD4+ T cells isolated from human PBMCs; test: Human naïve CD4+ T cells differentiated into Tregs; assay type: cell-based; conditions: differentiated into Tregs in presence of BT-11, dose dependent
Experimental: as §2, §3

Mdr1a−/− mice = test: Mdr1a−/− model of colitis (IBD); assay type: in vivo
Description: Mdr1a−/− model. Mdr1a−/− mice develop spontaneous colitis. […] Mice were weighed and scored weekly to monitor the development of colitis. At 10 weeks of age, Mdr1a−/− were sacrificed for the collection of tissue for downstream assay. DSS model. Lancl2^ΔT and Lancl2-expressing controls were given dextran sulfate sodium in drinking water for seven days. Following seven days, standard drinking water was returned. Mice were weighed and scored daily. Mice were euthanized for tissue collection at 7 and 10 days of experimental timeline. Adoptive transfer model. WT and Lancl2−/− donor spleens were crushed and enriched for CD4+ fraction by magnetic sorting. CD4+CD45RB^hiCD25− (Teff) and CD4+CD45RB^loCD25+ (Treg) cells were sorted by a FACSAria cell sorter. Based on indicated experimental group, Rag2−/− recipient mice received 4×10^5 Teff and 1×10^5 Treg cells from WT or Lancl2−/− origin by intraperitoneal injection. […] Mice were weighed and scored weekly until euthanasia at 8 weeks post-transfer.
Colons and mesenteric lymph nodes (MLN) were collected into RPMI/FBS buffer containing collagenase (300U/mL) and DNase (50U/mL) for digestion. Following filtration of the resulting single cell suspensions, immune cells were purified by Percoll gradient. Cells were labeled with mixtures of extracellular (CD45, CD3, CD4, CD8, CD19, NK1.1, CD25, F4/80, CD11b, CX3CR1, CD64) and intracellular (Tbet, RORγT, FOXP3, IFNγ, IL17, IL10) antibodies in a sequential live staining in 96-well plates. Data was acquired using a FACS Celesta flow cytometer with FACSDiva software.
Total RNA from colon and cells was generated using the Qiagen RNeasy mini kit. cDNA was generated using the BioRad iScript cDNA synthesis kit. Standard curves were generated by serial dilution of purified product from a standard PCR reaction with Taq DNA polymerase followed by purification using the Qiagen MinElute PCR purification kit. Expression levels were obtained from quantitative real-time PCR with SybrGreen supermix on a BioRad CFX96 Thermal cycler followed by normalization to expression of β-actin as described previously.
H&E stained colonic sections were prepared from portions of colons collected into 10% buffered formalin and embedded in paraffin. Slides were examined by a board-certified veterinary pathologist via an Olympus microscope and images were collected with Image-Pro software. Samples were scored (0-4) for leukocytic infiltration, epithelial erosion and mucosal thickening.

Naïve CD4+ T cells = test: Differentiation of naïve CD4+ T cells into Tregs with IL-2 or IL-12 (flow cytometry); assay type: cell-based, mice; conditions: media containing IL-2 or IL-12, inhibitor SF1670 or STAT5i
Experimental: Naïve CD4+ T cells were isolated from the spleens of mice by magnetic sorting. The isolated cells were incubated in anti-CD3/anti-CD28 coated 96 well plates in Treg differentiation media. The Treg differentiation media was Iscove's Modified Dulbecco's Medium (IMDM) media (ThermoFisher Scientific) supplemented with fetal bovine serum, HEPES, penicillin/streptomycin, L-glutamine, and differentiation agents. The Treg differentiation agents were 10 nM all-trans-retinoic acid and 5 ng/mL TGF-β. Additional experiments were conducted comparing differentiation in the Treg differentiation media with and without the addition of 10 ng/mL IL-2 or IL-12. […] Prior to assay, cells were stimulated with PMA and ionomycin for 6 hours.
Colonic lamina propria lymphocytes and cultured cells were plated in 96 well plates (6×10^5 cells/well) and processed for immunophenotyping by flow cytometry as previously described. Briefly, cells were incubated with fluorochrome conjugated antibodies to extracellular markers: CD45, CD4, CD3, CD25, CD8. Samples needing a secondary staining were incubated with secondary antibodies, or streptavidin-conjugated fluorochrome. The samples were then fixed and permeabilized. Cells were incubated with antibodies to intracellular markers: Tbet, IFNγ, IL10, FOXP3, IL17, RORγT. Data was acquired with a BD FACS Celesta flow cytometer and analyzed using FACS Diva software (BD Pharmingen). […]

[8] = WT Treg pre-treated with BT-11, 24 h co-assay

## O=C(c1cccc(-c2nc3ccccc3[nH]2)n1)N1CCN(C(=O)c2cccc(-c3nc4ccccc4[nH]3)n2)CC1 [BT-11, N,N-Bis(benzimidazolylpicolinoyl)piperazine]
[1]; Lancl2ΔT mice treated with BT-11
  Th1 and Th17 cells in colonic LP: failed to induce characteristic reductions in Th1 and Th17 cells
[1]; Lancl2ΔT mice, seven-day DSS, oral BT-11
  efficacy in DSS model with loss of LANCL2 in CD4+ T cells: abrogated the efficacy of BT-11
CD4+ T cells
  Treg cell differentiation: increased differentiation of Tregs
[2]
  burden of C. difficile within the colon: did not induce a decrease in the burden of C. difficile
  colonic pathology including infiltration of leukocytes: reduced colonic pathology
  mortality: complete protection against mortality
  neutrophils, Th1 and Th17 cells within the lamina propria: reduced neutrophils, Th1 and Th17 cells
  regulatory T cells within the lamina propria: increase in regulatory T cells
[2]; from day 2 onward
  disease activity scores: lower disease activity scores
[3]; KO (Lancl2−/−) Treg pre-treated with BT-11
  proliferative index and TNFα/IFNγ expression: did not induce changes in either measure
[3]; [8]
  expression of TNFα and IFNγ by cytometric bead array: lowered
  proliferative index of CD4+ T cells (CFSE): lowered the proliferative index
[3]; WT Treg pre-treated with BT-11, after 24 h co-assay
  retention of Treg (FOXP3+IL10+) phenotype: greater retention of Treg (FOXP3+IL10+) phenotype
[4]; base Treg differentiation media and with IL-2 or IL-12
  STAT5a phosphorylation: phosphorylated in a greater ratio
[4]; base media and media containing IL-2, but not IL-12
  FOXO1 phosphorylation: similarly affected
LANCL2
  pKd: 5.11
[5]; 0.625 μM BT-11
  expression of P2rx7: significantly upregulated (P<0.05)
[5]; 48 hours of BT-11 treatment, significant at 0.625 μM
  expression of Socs2, Capn3, Irf7 and Lag3: dose-dependent increase
[6]; 24 hour culture with BT-11
  percentage of IL-10+ and FOXP3+ cells: higher percentage of IL-10+ and FOXP3+ cells
  percentages of TNFα+ and IFNγ+ cells: lower percentages of TNFα+and IFNγ+ cells
[6]; augmented (external) PEP concentration
  commitment to effector phenotypes (IFNγ+ cells): prevented cells from an increased commitment to effector phenotypes
[7]
  stability-associated Treg markers (Lag3, Socs2, Irf7, P2rx7, Capn3, Ikzf2): upregulation of stability-associated Treg markers
Mdr1a−/− mice; 8 mg/kg oral daily, at 10 weeks of age
  colonic leukocytic infiltration, epithelial erosion and mucosal thickening: reduced colonic leukocytic infiltration, epithelial erosion and mucosal thickening
Mdr1a−/− mice; 8 mg/kg oral daily, six weeks from four weeks of age
  disease activity (development of disease): prevented the development of disease throughout the six-week period; also recorded: decreases disease activity index
Mdr1a−/− mice; beginning after presentation of symptoms at 7 weeks of age
  efficacy when given therapeutically: displays efficacy when given therapeutically
Mdr1a−/− mice; colonic LP and MLN, 8 mg/kg oral daily
  percentages of IL-10-producing cellular subsets (CX3CR1+ macrophages, Treg cells): increased percentages of IL-10-producing cellular subsets
Mdr1a−/− mice; colonic gene expression and cytometric bead array
  inflammatory cytokines IFNγ, IL17A, IL6, TNFα, MCP1: Down-regulation of inflammatory cytokines
Mdr1a−/− mice; flow cytometry, 8 mg/kg oral daily
  Th1 and Th17 cells in colonic lamina propria and mesenteric lymph nodes: significant (P<0.05) reductions
Mdr1a−/− mice; oral treatment
  whole colon Lancl2 expression: upregulated whole colon Lancl2

## CC(C)(C)C(=O)Nc1ccc2c(c1)C(=O)C(=O)c1ccccc1-2 [SF1670, reference compound]
Naïve CD4+ T cells
  effects of BT-11 on CD25+ FOXP3+ and CD25+ Tbet+ cells with inhibitors: only prevented effects of BT-11 on CD25+ Tbet+ cells in IL-2 containing media
